Holding throughout (assay type): cell-based, human
One experiment has as its system BxPC3 N-Cadherin. As to the kind of experiment: N-cadherin immunocytochemistry, BxPC3. Conditions: vs untreated cells. How it is done: In order to investigate immunocytochemical reactions, control and stimulated cells were formalin-fixed and paraffin embedded before obtaining […] sections from each cell block. All immunocytochemical staining was performed automatically (Bondt—maX, Menarini, Florence, Italy) with primary antibodies: E-cadherin (DakoCytomation, Glostrup, Denmark) (1:200), N-cadherin (DakoCytomation) (1:100), Twist1 (Novocastra, Newcastle-upon-Tyne, UK)(1:600). Sections were then lightly counterstained with hematoxylin. E-cadherin and N-cadherin immunoreactions were defined as immunoreactions detectable in the membrane while Twist was defined as a positive nuclear staining. At least three independent sets of experiments were performed in each experimental condition.

Experiment [1] relates to IκBα phosphorylation at Ser32. Briefly: NF-κB signaling, western blot of IκBα phosphorylation in PDAC cell lines. Conditions: BxPC3, Capan1, MiaPaCa2, Panc1, 10 min, 10 nM S100A8, S100A9, S100A8/A9, 50 nM NT-S100A8, 0.02 ng/ml TGFβ1. How it is done: (§1) Five million cells were seeded in Petri dishes (ø 10 cm) and cultured for 24 hours in their respective complete media prior to starting the experiments. Cells remained non-stimulated (negative control) or were stimulated with 50 mU insulin (positive control) (Insuman Rapid, Sanofi-Aventis, Deutschland, GmbH) for 10 min; in parallel, experimental cells were stimulated with 50 nM NT-S100A8, 0,02 ng/ml TGFβ1 (ProSpec-Tany TechnoGene), 10 nM S100A8 and 10 nM S100A9 alone or combined for 10 min. Following stimulations, Petri dishes were immediately transferred into an ice bath, and the cells were washed twice with cold PBS, re-suspended in 100 μl of cold lysis buffer [20 mM Tris–HCl, pH 7.5, 150 mM NaCl, 1 mM EDTA, 1% Triton-X 100, 50 mM NaF, 10 mM Na4P2O7,1 mM Na3VO4, and 10% protease inhibitor cocktail (Sigma Aldrich SRL, Milano, Italy)]. Lysates were centrifuged for 10 min at 14,000 rpm at 4°C and, in the supernatants, total proteins were measured using the Bio-Rad protein assay (Bio-Rad Laboratories, Milano, Italy). Each experiment was performed at least in triplicate.
(§2) For each sample, 40 μg proteins were electrophoresed through 4–12% NuPAGE®NovexBis-Tris SDS–PAGE Gel or 3-8% NuPAGE®NovexTris-Acetate SDS–PAGE Gel (Invitrogen S.R.L., Life Technologies, Monza, Italy) and electrophoretically transferred to Nitrocellulose Membrane (iBlot® Transfer Stack, Invitrogen S.R.L.) by means of the iBlotTMDry Blotting System (Invitrogen S.R.L.). Following incubation for 1 hour in a blocking buffer [5% low fat powder milk re-suspended in PBS-T (PBS with 0.1% Tween-20)], membranes were incubated overnight at 4°C with the primary antibodies [antiphospho IkB-α (Ser^32) (Santa Cruz Biotechnology, Inc., Santa Cruz, CA, USA); anti-phospho-Akt (Ser^473), anti-phospho-Akt (Thr^308), anti-Akt and anti-phospho-S6 Ribosomal Protein (Ser^235/236), anti-cleaved Caspase-3, anti-phospho-Stat3 Tyr^705, anti-β-actin, anti-phospho mTOR (Ser^2448, Ser^2481) (Cell Signaling Technology, Danvers, MA, USA); anti-RAGE (R&D Systems, Minneapolis, MN, USA) ] diluted 1:5000 (β-actin), 1:2000 (mTOR, cleaved Caspase-3, Stat3) or 1:3000 (all the others) in the blocking buffer. The blots, washed three times in PBS-T for 15 min, were incubated with […] anti-rabbit (Cell Signaling Technology) or anti-goat (Sigma Aldrich) secondary antibodies and then washed three times in PBS-T for 15 min and developed with the ECL Advance Western Blot Detection Kit (GE Healthcare Technologies, Milan, Italy).

Experiment [2] relates to Akt phosphorylation sites Thr308 and Ser473. As to the kind of experiment: Akt signaling, western blot in PDAC cell lines. The following applies: BxPC3, Capan1, MiaPaCa2, Panc1, 10 min; for Akt Ser473 phosphorylation: 10 nM S100A8, S100A9, S100A8/A9, 50 nM NT-S100A8; for Akt Thr308 phosphorylation: 10 nM S100A8, S100A9, S100A8/A9, 50 nM NT-S100A8, 0.02 ng/ml TGFβ1. How it is done:
as §1, §2
On the technique in general: A western blot detects proteins with antibodies after separation by electrophoresis.

The next experiment relates to BxPC3. As to the kind of experiment: XTT cell viability assay, BxPC3. Conditions: 48 hours, TGFβ1 0.02 ng/ml, NT-S100A8 50 nM, S100A8 10 nM, S100A9 10 nM, alone or combined, at least three independent experiments in quadruplicate. How it is done: (§3) BxPC3, Capan1, MiaPaCa2, Panc1 and BxPC3-SMAD4+ cells were seeded (2000 cells per well) in 96-well cell culture plates and cultured in complete media for 24 hours. Media were then replaced with fresh cell culture media in absence (control) or in presence of TGFβ1 (0.02 ng/ml) and NT-S100A8 (50 nM), alone or combined or in absence (control) or in presence of TGFβ1 (0.02 ng/ml), S100A8 (10 nM) and S100A9 (10 nM) alone or combined. Cell growth was assessed after 48 hours using the XTT cell viability test (Roche, Milano, Italy). At least three independent experiements, each made in quadruplicate, were run. The results were expressed as percentage with respect to the median Abs450nm of control cells run in the same experimental set.
(In general: Tetrazolium assays rely on reduction of a dye to a coloured formazan, in cell work by metabolically active cells.)

A further experiment relates to Capan1. Briefly: XTT cell viability assay, Capan1. Conditions: 48 hours, TGFβ1 0.02 ng/ml, NT-S100A8 50 nM, S100A8 10 nM, S100A9 10 nM, alone or combined, at least three independent experiments in quadruplicate. The procedure: as §3

Consider “NT-S100A8: 14 N-terminal aminoacid peptide of S100A8, isolated from PDAC tissues (MLTELEKALNSIID; UniProt P05109 1-14, looked up, fragment)”, for which the N-Cadherin membranous immunostaining entry with BxPC3 N-Cadherin is listed as “less marked than in control cells”. The “IκBα phosphorylation (Ser32)” value in experiment [1] is “reduced IκBα phosphorylation in Capan1, MiaPaCa2 and Panc1, not in BxPC3”. Further, in experiment [2], the “Akt Ser473 phosphorylation” value was “augmented in the same cell lines”; the “Akt Thr308 phosphorylation” value was “reduced in Capan1 and MiaPaCa2”.

For “S100A8: inflammatory calcium binding protein S100A8 (ProSpec-Tany TechnoGene)”, in the experiment on BxPC3, the “BxPC3 % to Control Mean±SEM” value was 111.45±5.92 % to Control. Moreover, in the experiment with BxPC3 N-Cadherin, the N-Cadherin membranous immunostaining result is reported as “less marked than in control cells”. The “IκBα phosphorylation (Ser32)” value in experiment [1] was “reduced IκBα phosphorylation in Capan1, MiaPaCa2 and Panc1, not in BxPC3”. Also, in experiment [2], the “Akt Ser473 phosphorylation” value was “reduced Akt Ser^473 phosphorylation in Capan1, MiaPaCa2 and Panc1 cells”; the “Akt Thr308 phosphorylation” value was “induced in BxPC3, and reduced in the other cell lines”. The “Capan1 % to Control Mean± SEM” value in the experiment with Capan1 is 96.22 ± 2.91 % to Control.

With “S100A9: inflammatory calcium binding protein S100A9, S100A8 binding partner”, in the experiment on BxPC3, the “BxPC3 % to Control Mean±SEM” value is reported as 103.53± 5.18 % to Control. In the experiment with BxPC3 N-Cadherin, the N-Cadherin membranous immunostaining entry was “less marked than in control cells”. Also, the “IκBα phosphorylation (Ser32)” value in experiment [1] is “reduced IκBα phosphorylation in Capan1, MiaPaCa2 and Panc1, not in BxPC3”. For the same substance, in experiment [2], the “Akt Ser473 phosphorylation” value was “reduced Akt Ser^473 phosphorylation in Capan1, MiaPaCa2 and Panc1 cells”; the “Akt Thr308 phosphorylation” value is “induced in BxPC3, and reduced in the other cell lines”. For the same substance, the “Capan1 % to Control Mean± SEM” value in the experiment on Capan1 is given as 103.07 ± 2.90 % to Control.

In the case of “TGFβ1: transforming growth factor beta 1 (ProSpec-Tany TechnoGene)”, in the experiment with BxPC3, the “BxPC3 % to Control Mean±SEM” value is reported as 96.85 ± 5.02 % to Control. Also, the N-Cadherin membranous immunostaining result with BxPC3 N-Cadherin was “less marked than in control cells”. The “IκBα phosphorylation (Ser32)” value in experiment [1] is “no significant effects”. Also, in experiment [2], the “Akt Thr308 phosphorylation” value is “inhibited Akt Thr^308, but not Akt Ser^473 phosphorylation in Smad4 expressing cells”. For the same substance, in the experiment with Capan1, the “Capan1 % to Control Mean± SEM” value is recorded as 104.31 ± 2.68 % to Control.
